Measured values taken from PMC6556873, “Rapid Covalent-Probe Discovery by Electrophile-Fragment Screening” (Journal of the American Chemical Society, 2019).
Where two headings read alike, the source gives them in different places.

Columns and labels:
[1] = in vitro; set-up: species or system CCD841, HEK293; conditions: human, hb2 cells, read-out: HB-2 Cells Viability (%)
[2] = target: T1, OTUB2 (OTUB2A) (Homo sapiens, UniProt Q96DC9); set-up: Intact protein LC/MS covalent labelling, fragments in pools of five, 200 uM each, 4 °C; conditions: 24 h, 4 °C, pool of five; 200 µM; covalent
T1 construct: full length residues 1-234, E. coli BL21(DE3)-R3, His tag removed by TEV, construct 27312 Da
T1 sequence (Q96DC9 1-234): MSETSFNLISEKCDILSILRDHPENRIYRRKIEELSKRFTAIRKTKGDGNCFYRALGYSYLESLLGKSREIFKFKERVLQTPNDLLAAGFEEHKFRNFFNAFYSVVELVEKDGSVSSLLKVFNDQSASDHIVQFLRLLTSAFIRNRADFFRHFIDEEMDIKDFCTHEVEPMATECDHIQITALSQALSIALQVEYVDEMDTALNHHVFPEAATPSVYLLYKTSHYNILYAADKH

[3] = target: T2, PCAF (Homo sapiens, UniProt Q92831); set-up: Intact protein LC/MS covalent labelling, fragments in pools of five, 200 uM each, 4 °C; conditions: 24 h, 4 °C, pool of five; 200 µM; covalent
T2 construct: gene KAT2B
T2 sequence (Q92831 whole entry, the tested form may be a part): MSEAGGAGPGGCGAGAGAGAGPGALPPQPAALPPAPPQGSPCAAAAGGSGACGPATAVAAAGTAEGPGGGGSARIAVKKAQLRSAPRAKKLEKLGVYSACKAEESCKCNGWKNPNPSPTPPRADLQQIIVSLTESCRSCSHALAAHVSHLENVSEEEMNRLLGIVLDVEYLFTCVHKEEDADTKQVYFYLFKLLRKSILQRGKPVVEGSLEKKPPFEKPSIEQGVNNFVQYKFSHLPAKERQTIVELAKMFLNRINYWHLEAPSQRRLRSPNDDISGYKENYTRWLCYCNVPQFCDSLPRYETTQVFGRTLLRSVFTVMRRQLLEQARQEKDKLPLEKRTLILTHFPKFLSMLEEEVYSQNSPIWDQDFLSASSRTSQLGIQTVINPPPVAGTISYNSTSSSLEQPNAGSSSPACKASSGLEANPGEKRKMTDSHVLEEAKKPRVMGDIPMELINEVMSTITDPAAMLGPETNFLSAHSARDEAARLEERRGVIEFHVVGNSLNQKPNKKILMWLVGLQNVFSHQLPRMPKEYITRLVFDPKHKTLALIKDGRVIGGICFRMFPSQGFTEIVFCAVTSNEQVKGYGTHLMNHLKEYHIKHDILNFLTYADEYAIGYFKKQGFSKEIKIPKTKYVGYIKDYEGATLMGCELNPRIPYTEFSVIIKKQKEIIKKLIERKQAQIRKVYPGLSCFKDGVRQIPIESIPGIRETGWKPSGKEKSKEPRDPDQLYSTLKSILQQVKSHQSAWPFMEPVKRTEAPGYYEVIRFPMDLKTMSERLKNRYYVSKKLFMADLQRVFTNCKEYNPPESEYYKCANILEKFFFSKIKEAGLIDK

[4] = target: T3, NUDT7 (Homo sapiens, UniProt P0C024); set-up: Intact protein LC/MS covalent labelling, fragments in pools of five, 200 uM each, 4 °C; conditions: 24 h, 4 °C, pool of five; 200 µM; covalent
T3 construct: residues 14-235, E. coli, pNIC28-Bsa4, N-terminal His6 tag removed by TEV, construct 26672 Da
T3 sequence (P0C024 14-235): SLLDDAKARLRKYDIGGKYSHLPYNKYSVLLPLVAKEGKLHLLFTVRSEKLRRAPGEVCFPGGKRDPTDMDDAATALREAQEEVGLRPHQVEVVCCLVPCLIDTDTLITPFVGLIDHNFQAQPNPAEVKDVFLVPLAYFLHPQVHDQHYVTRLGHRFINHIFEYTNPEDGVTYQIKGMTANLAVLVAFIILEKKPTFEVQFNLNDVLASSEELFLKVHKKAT

[5] = target: T4, BSA (Bos taurus, UniProt P02769); set-up: Intact protein LC/MS covalent labelling, fragments in pools of five, 200 uM each, 4 °C; conditions: 24 h, 4 °C, pool of five; 200 µM; covalent
T4 construct: gene ALB
T4 sequence (P02769 whole entry, the tested form may be a part): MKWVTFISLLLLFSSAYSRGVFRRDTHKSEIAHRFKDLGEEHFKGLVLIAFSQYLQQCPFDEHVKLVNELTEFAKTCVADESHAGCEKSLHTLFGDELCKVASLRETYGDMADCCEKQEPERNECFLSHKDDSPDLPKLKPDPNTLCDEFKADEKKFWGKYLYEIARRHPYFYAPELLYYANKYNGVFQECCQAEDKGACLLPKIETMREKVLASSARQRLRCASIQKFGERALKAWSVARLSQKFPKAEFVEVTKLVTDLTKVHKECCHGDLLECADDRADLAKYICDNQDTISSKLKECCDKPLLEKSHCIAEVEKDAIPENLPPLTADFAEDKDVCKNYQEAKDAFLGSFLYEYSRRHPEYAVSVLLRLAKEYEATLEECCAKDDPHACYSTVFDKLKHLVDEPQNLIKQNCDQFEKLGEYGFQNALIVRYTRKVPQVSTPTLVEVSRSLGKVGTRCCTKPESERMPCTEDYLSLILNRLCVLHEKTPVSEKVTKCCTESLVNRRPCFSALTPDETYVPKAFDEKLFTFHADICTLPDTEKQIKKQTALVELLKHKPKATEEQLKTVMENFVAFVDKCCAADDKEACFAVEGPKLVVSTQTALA

[6] = in vitro; set-up: species or system HB2, HEK293; conditions: human, ccd841 cells
[7] = in vitro; set-up: species or system HB2, CCD841; conditions: human, hek293 cells

Structure (SMILES)	viability at 48 h, 10 µM [1] [%]	OTUB2 [2]	PCAF [3]	NUDT7 [4]	BSA [5]	viability at 48 h, 10 µM [6] [%]	viability at 48 h, 10 µM [7] [%]
C=CC(=O)NC(=O)NCc1ccccc1 [PCM-0102834]	23	0	0	0.35	0	57.4	17.9
O=C(CCl)N1CCN(S(=O)(=O)c2ccc3ccccc3c2)CC1 [PCM-0102836]	11.7	0	0	0	0	67.7	46.3
O=C(CCl)N1CCN(S(=O)(=O)c2ccccc2Cl)CC1 [PCM-0102837]	4.7	0	0	0.18	0	46.9	6
CC(=O)c1sc(NC(=O)CCl)nc1C [PCM-0102838]	96	0	0	0.12	0	92.1	87.2
C=CC(=O)NCc1ccc(F)cc1 [PCM-0102839]	105	0	0	0	0	111	87.3
CN(C)c1ccc(Cl)cc1NC(=O)CCl [PCM-0102840]	29.2	0.06	0.23	0.14	0	85.9	63.2
COC(=O)C1Cc2ccccc2CN1C(=O)CCl (stereo not shown) [PCM-0102841]	96.4	0.41	0	0.19	0	77.3	60.3
C=CC(=O)N1CC(C(=O)NC)C1 [PCM-0102843]	104	0.1	0	0	0.23	114	94.1
C=CC(=O)N1CCC(N)CC1.Cl [PCM-0102844]	109	0	0.25	0.2	0	98.2	124
C=CC(=O)Nc1nc(-c2ccccc2C)cs1 [PCM-0102845]	107	0	0	0	0	106	93.4
O=C(CCl)Nc1ccc([N+](=O)[O-])cc1Br [PCM-0102848]	54.1	0	0	0.24	0	68.4	47
C=CC(=O)N1CCCC(S(=O)(=O)N2CCOCC2)C1 (stereo not shown) [PCM-0102849]	107	0	0	0	0	97.2	97.9
COC(=O)c1cccc(NC(=O)CCl)c1O [PCM-0102851]	106	0.23	0	0.1	0	116	108
O=C(CCl)Nc1cccnc1N1CCCC1 [PCM-0102852]	106	0	0	0	0	100	115
CC(C)(C)C(=O)NNC(=O)CCl [PCM-0102855]	98.2	0	0	0.07	0	93.1	87.8
C=CC(=O)Nc1ccccc1F [PCM-0102856]	106	0	0	0	0	119	84
